# Assay results published in EP1457483A1, “Cationic lipids with serine backbone” (Ruhr-Universität Bochum, priority 2003, dated 2004).
# How the values were obtained:
# primary dendritic cells = assay: Transfection of primary dendritic cells with lipoplexes (luciferase activity per protein content); type: cell-based, human
# Protocol: Cell culture: SV40 transformed African green monkey kidney cell line COS-7 (ATCC CRL-1651) was routinely passaged in DMEM (GIBCO BRL, Karlsruhe, Germany), respectively, supplemented with 1% L-glutamin solution (100x), 1% Penicillin/Streptomycin solution (100x) (GIBCO BRL, Karlsruhe, Germany), and 10% FCS (BioWhittaker, Verviers, Belgium) at 37°C with 5% CO2 in humidified atmosphere. For the screening cells were maintained in 96-well culture plates (Greiner, Frickenhausen, Germany) in 100 μl DMEM, 10 % FCS, 1 % Penicillin-streptomycin in a humidified atmosphere at 37 °C/5 % CO2. 24 h prior to transfection, the cells were seeded into the microtiter plate at 10,000 cells per well to reach a confluency of 50 % at the time of transfection. […] After 5-6 days non-adherent cells were collected and purity of DCs was determined by FACS analysis using a FACSort flow cytometer (Becton Dickinson, Mountain View, CA) and the CellQuest software for data processing as recently described (Jantscheff, P. et al., J. Immunol. Methods 163(1):91-7 (1993)). […] Binding specificity was determined using IgG1 (MOPC-21), IgG2a (UPC-10), or IgG2b (MOPC-141) isotype control mAbs (SIGMA-ALDRICH Chemie, Buchs, Switzerland). […]
# COS-7 cells = assay: Automated lipofection screening: GFP-luciferase reporter gene transfer (luciferase activity per protein content); type: cell-based, African green monkey; details: point is thousands separator
# Protocol: Screening the combinatorial lipid library for lipofection properties: Goal of this first step was to compare transfection efficiency of these structurally related cationic lipids with systematically modified hydrocarbon chain compositions for the development of suitable lipofection reagents and protocols and to study the relationship between structure and transfection efficiency of this new class of cationic lipids for gene transfer. All lipids (MS-1 to MS-50, table 1) were tested using a standard protocol: From each lipid, twenty four different lipoplexes were formed containing either no helper lipid or the helper lipids DOPE and CHOL at molar amounts (1:0.5), respectively, using eight different lipid:DNA-charge ratios (LDR) from 1:1 - 15:1, resulting in a lipofection profile for each lipid. The COS-7 cell-line was used for this lipofection study since COS-7 is easy to transfect and differences between the lipids are easy to identify.
# Cell culture: SV40 transformed African green monkey kidney cell line COS-7 (ATCC CRL-1651) was routinely passaged in DMEM (GIBCO BRL, Karlsruhe, Germany), respectively, supplemented with 1% L-glutamin solution (100x), 1% Penicillin/Streptomycin solution (100x) (GIBCO BRL, Karlsruhe, Germany), and 10% FCS (BioWhittaker, Verviers, Belgium) at 37°C with 5% CO2 in humidified atmosphere. For the screening cells were maintained in 96-well culture plates (Greiner, Frickenhausen, Germany) in 100 µl DMEM, 10 % FCS, 1 % Penicillin-streptomycin in a humidified atmosphere at 37 °C/5 % CO2. 24 h prior to transfection, the cells were seeded into the microtiter plate at 10,000 cells per well to reach a confluency of 50 % at the time of transfection. Dendritic cells: Dendritic cells (DC) were derived from highly purified circulating CD14(+) monocytes: In a first step, peripheral blood mononuclear leukocytes (PBL) from healthy control persons were isolated by Ficoll-Paque (Pharmacia Biotech AB, Uppsala, Sweden) density centrifugation. The following immunomagnetic purification of the monocytes from PBL was performed using CD14 Microbeads and MiniMACS high gradient magnetic separation columns (Miltenyi Biotech, Bergisch Gladbach, Germany) according to manufacturer's instructions. Isolated monocytes (5 x 10^5/well) were cultured in RPMI supplemented with 10 % FCS, or serum-free Macrophage-SFM medium (GIBCO BRL, Karlsruhe, Germany) supplemented with human recombinant GM-CSF (0.05µg/ml) and IL-4 (0.025µg/ml) (PromoCell, Heidelberg, Germany) in 6-well plates. Aliquots of the cells were reanalyzed by FACS with anti-CD14 mAbs (Pharmingen, San Diego, CA). After 5-6 days non-adherent cells were collected and purity of DCs was determined by FACS analysis using a FACSort flow cytometer (Becton Dickinson, Mountain View, CA) and the CellQuest software for data processing as recently described (Jantscheff, P. et al., J. Immunol. Methods 163(1):91-7 (1993)).
SMILES,"Transfection efficiencies, RLU (primary dendritic cells; helper lipid 1:0.5 at optimum lipid:DNA ratio, ± standard deviation (lu µg^-1 protein)) [RLU]",% DOTAP (primary dendritic cells; standardized on lipofection efficiency of DOTAP-lipoplexes set to 100%) [%],"transfection efficiency (DOTAP values) (COS-7 cells; best lipid/DNA charge ratio of 2.5, determined in each run) [RLU]","Maximum transfection efficiency, MW (mean value), Helper lipid: DOPE (COS-7 cells; pEGFPLuc plasmid, cationic/helper lipid 1:0.5 with DOPE, at the LDR giving the maximum) [RLU]","Maximum transfection efficiency, MW (mean value), Helper lipid: CHOL (COS-7 cells; pEGFPLuc plasmid, cationic/helper lipid 1:0.5 with cholesterol, at the LDR giving the maximum) [RLU]","Maximum transfection efficiency, MW (mean value), Helper lipid: without (COS-7 cells; pEGFPLuc plasmid, no helper lipid, at the LDR (1:1-15:1) giving the maximum) [RLU]"
"CCCCCCCC/C=C\CCCCCCCC(=O)OCC(C[N+](C)(C)C)OC(=O)CCCCCCC/C=C\CCCCCCCC (stereo not drawn) [DOTAP, N-[1-(2,3-dioleoyloxy)propyl]-N,N,N-trimethylammonium methylsulfate]",235 ± 119,100,30.838 ± 6.363,–,–,–
CCCCCCCCCCCCCCCCCCN(CCCCCCCCCCCCCCCCCC)[C@@H](CO)C(=O)NCCN [compound 4],–,–,–,4.695,131.981,2.827
